Experimental data published in patent publication US8114904B2, “Luminescence quenchers and fluorogenic probes for detection of reactive species” (Versitech Limited & Morningside Ventures Limited, priority 2008, dated 2012).

Tests used:
[1] = UV-visible absorption spectrum; assay type: physicochemical; conditions: 1 μM solution, pH 7.4 0.1 M phosphate buffer, 0.1% DMF
Protocol: Compound 10 obtained in Example 4 was dissolved in pH 7.4 0.1 M phosphate buffer containing 0.1% DMF as cosolvent to form a 10 μM solution.
Compound 12 obtained in Example 5 was dissolved in pH 7.4 0.1 M phosphate buffer containing 0.1% DMF as cosolvent to form a 1 μM solution.
Compound 14 obtained in Example 6 was dissolved in pH 7.4 0.1 M phosphate buffer containing 0.1% DMF as cosolvent to form a 1 μM solution.
Compound 30 obtained in Example 7 was dissolved in pH 7.4 0.1 M phosphate buffer containing 0.1% DMF as cosolvent to form a 10 μM solution. The absorption spectrum of the 10 μM solution of Compound 30 was measured.

[2] = Emission spectra of the probe itself; assay type: physicochemical; conditions: 1 μM, 0.1 M phosphate buffer pH 7.4, excitation 515 nm, Hitachi F2500, 700 V
Protocol: (§1) Compound 10 obtained in Example 4 was dissolved in DMF to a concentration of 10 mM, and then the solution was diluted to 10 μM by 0.1 M phosphate buffer (pH 7.4). The fluorescence spectrum of the 10 μM solution of Compound 10 was measured using a Hitachi F2500 fluorescence spectrometer and the photomultiplier voltage was 700 V. The slit width was 2.5 nm for both excitation and emission. The measurement was carried out at an excitation wavelength of 520 nm. The results shown in FIG. 1 indicate that Compound 10 itself is non-fluorescent.
(§2) Compound 12 obtained in Example 5 was dissolved in DMF to a concentration of 1 mM, and then the solution was diluted to 1 μM by 0.1 M phosphate buffer (pH 7.4). The fluorescence spectrum of the 1 μM solution of Compound 12 was measured using a Hitachi F2500 fluorescence spectrometer and the photomultiplier voltage was 700 V. The slit width was 2.5 nm for both excitation and emission. The measurement was carried out at an excitation wavelength of 515 nm. The results shown in FIG. 4 indicate that Compound 12 itself is non-fluorescent.
as §2, with “Compound 14” for “Compound 12”, “Example 6” for “Example 5”, “FIG. 6” for “FIG. 4”
as §1, with “Compound 30” for “Compound 10”, “Example 7” for “Example 4”, “Hitachi F7000” for “Hitachi F2500”, “was 900” for “was 700”, “nm.” for “nm. The results shown in FIG. 1 indicate that Compound 10 itself is non-fluorescent.”

[3] = Detection of hypochlorite: fluorescence spectra after addition of NaOCl; conditions: 1 μM probe
Protocol: Compound 14 obtained in Example 6 was dissolved in DMF to a concentration of 1 mM, and then the solution was diluted to 1 μM by 0.1 M potassium phosphate buffer (pH 7.4). Commercial bleach was the source of NaOCl. The concentration of NaOCl was determined by titration with sodium thiosulfate solution which was standardized by the titration with KlO3. Then NaOCl was added to provide final concentrations of 0, 2, 3, 4, 5, 6, 7, and 8 μM. Fluorescence spectra of the solutions were measured after 5 minutes under the same conditions as mentioned above.

[4] = Comparison of specificity with different ROS and RNS; conditions: 1 μM probe in 0.1 M potassium phosphate buffer
Protocol: The reactivity of Compound 10 was compared toward different reactive oxygen species (ROS) and reactive nitrogen species (RNS), including OCl^−, H2O2, ^1O2, NO, O2^•−, ^•OH, ONOO^− and alkylperoxyl radical (ROO^•). Different reactive oxygen species and reactive nitrogen species were added independently to 5 mL of the solution of Compound 10 (10 μM in 0.1 M potassium phosphate buffer). The changes of fluorescence intensity before and after the treatment were measured. The reactive oxygen species and reactive nitrogen species were prepared as follows. • a. H2O2 (final 100 μM) was added and then stirred for 1 hour at 25° C. • b. (3-(1,4-Dihydro-1,4-epidioxy-1-naphthyl)propionic acid) (final 100 μM) was added and then stirred at 25° C. for 1 hour. • c. 2,2′-Azobis(2-amidinopropane)dihydrochloride (final 100 μM) was added and then stirred at 25° C. for 1 hour. • d. SNP (Sodium Nitroferricyanide (III) Dihydrate) (final 100 μM) was added and then stirred for 1 hour at 25° C. • e. O2^•− was generated by xanthine and xanthine oxidase. Xanthine oxidase was added firstly. After xanthine oxidase was dissolved, xanthine (final 100 μM) was added and the mixtures were stirred at 25° C. for 1 hour. • f. Ferrous chloride (final 10 μM) was added in the presence of 10 equivalences of H2O2 (100 μM). • g. ONOO^− (final 10 μM) was added at 25° C. • h. NaOCl (final 10 μM) was added at 25° C. Commercial bleach was the source of NaOCl.
The reactivity of Compound 12 was compared toward different reactive oxygen species (ROS) and reactive nitrogen species (RNS), including OCl^−, H2O2, ^1O2, NO, O2^•−, ^•OH, ONOO^− and alkylperoxyl radical (ROO^•). Different reactive oxygen species and reactive nitrogen species were added independently to 5 mL of the solution of Compound 12 (1 μM in 0.1 M potassium phosphate buffer). The changes of fluorescence intensity before and after the treatment were measured. The reactive oxygen species and reactive nitrogen species were prepared as follows: • i. H2O2 (final 100 μM) was added and then stirred for 1 hour at 25° C. • j. (3-(1,4-Dihydro-1,4-epidioxy-1-naphthyl)propionic acid) (final 100 μM) was added and then stirred at 25° C. for 1 hour. • k. 2,2′-Azobis(2-amidinopropane)dihydrochloride (final 100 μM) was added and then stirred at 25° C. for 1 hour. • l. SNP (Sodium Nitroferricyanide (III) Dihydrate) (final 100 μM) was added and then stirred for 1 hour at 25° C. • m. O2^•− was generated by xanthine and xanthine oxidase. Xanthine oxidase was added firstly. After xanthine oxidase was dissolved, xanthine (final 100 μM) was added and the mixtures were stirred at 25° C. for 1 hour. • n. Ferrous chloride (final 10 μM) was added in the presence of 10 equivalences of H2O2 (100 μM). • o. ONOO^− (final 10 μM) was added at 25° C. • p. NaOCl (final 10 μM) was added at 25° C. Commercial bleach was the source of NaOCl.
The reactivity of Compound 14 was compared toward different reactive oxygen species (ROS) and reactive nitrogen species (RNS), including OCl^−, H2O2, ^1O2, NO, O2^•−, ^•OH, ONOO^− and alkylperoxyl radical (ROO^•). Different reactive oxygen species and reactive nitrogen species were added independently to 5 mL of the corresponding solution of Compound 14 (1 μM in 0.1 M potassium phosphate buffer). The changes in fluorescence intensity before and after the treatment were measured. The reactive oxygen species and reactive nitrogen species were prepared as follows: • a. H2O2 (final 100 μM) was added and then stirred for 1 hour at 25° C. • b. (3-(1,4-Dihydro-1,4-epidioxy-1-naphthyl)propionic acid) (final 100 μM) was added and then stirred at 25° C. for 1 hour. • c. 2,2′-Azobis(2-amidinopropane)dihydrochloride (final 100 μM) was added and then stirred at 25° C. for 1 hour. • d. SNP (Sodium Nitroferricyanide (III) Dihydrate) (final 100 μM) was added and then stirred for 1 hour at 25° C. • e. O2^•− was generated by xanthine and xanthine oxidase. Xanthine oxidase was added firstly. […]

absorption maximum [1]: about 515 nm | fluorescence of the probe itself [2]: non-fluorescent
SMILES: CN(c1ccc(N)cc1)c1ccc2c(c1)Oc1cc(O)ccc1C21OC(=O)c2ccccc21 (stereo not drawn) [Compound 14]
fluorescence intensity at 535 nm with increasing concentration of hypochlorite ([3]; 0.1 M potassium phosphate buffer pH 7.4): increases linearly | fluorescence intensity after the addition of hypochlorite ([3]; NaOCl 0-8 μM, 0.1 M potassium phosphate buffer pH 7.4, after 5 minutes, excitation 515 nm): increase significantly | reactivity among ROS and RNS in an abiotic system [4]: much higher reactivity towards hypochlorite | fluorescence enhancement by hypochlorite compared with any other ROS and RNS ([4]; 25° C.): much stronger fluorescence enhancement
